Like-named read-outs stand apart in the source and are kept apart here.
Tests used:
hOAT3 = hOAT3 (Homo sapiens, UniProt Q8TCC7); experiment: Inhibition of hOAT3-mediated uptake of 3H-ES in hOAT3-MDCK cells; format: cell-based
From the text: (§1) Considering the relative exposure characteristics, GA and PCA were selected as PK-marker and Q-marker components of PCE in previous studies ([Ma et al., 2015]; [Ma et al., 2016]; [Li et al., 2021b]). In this study, we investigated the concentration-dependent inhibitions of GA and PCA on multiple transporters, including OAT1, OAT3, OCT2, MDR1, and BCRP. Stably expressing cell lines of hOAT1-MDCK, hOAT3-MDCK, hOCT2-S2, hMDR1-MDCK, hBCRP-MDCK, and their mock cells were obtained from Japan Fuji Biomedical Co., Ltd. The cells were maintained in DMEM (Sigma) supplemented with 10% FCS, 1% non-essential amino acids (Sigma), and 2% L-glutamine. The medium for the Transwell® plates (Corning Costar, Cambridge, MA, United States) was supplemented with 0.1% gentamicin. Membrane filters were placed in a 12 mm well with 1.5 and 0.5 ml of culture medium in the basolateral and apical compartments, respectively. Cells were cultured at 37°C in an atmosphere of 5% CO2. The inhibition experiments were adapted from previous methods with minor modifications ([Li et al., 2021a]; [2021b]).
Briefly, the hOAT1-MDCK, hOAT3-MDCK, and hOCT2-S2 cells were trypsinized and suspended in the culture medium to provide a density of 1.5 × 10^5 cells/ml. After incubating for 48 h, the cells were washed twice with preheated DPBS and then pre-incubated with DPBS for 10 min at 37°C. 500 µl of DPBS containing probe substrates was added to initiate the uptake in the presence or absence of GA, PCA or positive inhibitors. The hMDR1-MDCK and hBCRP-MDCK cells were suspended at a density of 4.0 × 10^5 cells/ml. After cultivation for 7 days, cells were washed twice and equilibrated for 30 min at 37°C with the pre-warmed HBSS buffer. […] The radioactive intensity of ^14C-PAH, ^3H-ES, and ^14C-TEA was measured using a Tri-Carb 2910TR scintillator (PerkinElmer, United States). Fluorescence was measured at 485 nm (excitation) and 546 nm (emission) for rhodamine 123, and 425 nm (excitation) and 528 nm (emission) for lucifer yellow. IC50 values were determined by employing GraphPad Prism 9.

BCRP mRNA = BCRP mRNA expression in Caco-2 cells (qRT-PCR); format: cell-based; details: 48 h pretreatment, bosentan 20 μM, GA 50 μM, PCA 50 μM, PCE 100 mg/ml
Procedure: After the incubation period, cells were harvested from the Transwell inserts for RNA extraction. […] Real-time quantitative PCR (qRT-PCR) was performed on an ABI Prism 7900HT Sequence Detection System (Applied Biosystems, Foster City, CA, United States) for the analysis of MDR1 and BCRP genes. Primers of housekeeping gene β-actin was used as internal controls. […] The relative gene expression levels were determined using the comparative CT method (ΔΔCT method). The cut-off CT was set at 35 cycles for all analyses. An arbitrary classification system was assigned to the data, designating relative expression levels >2 as high mRNA expression, levels between 2 and 1 as moderate mRNA expression, levels between 1 and 0.1 as low mRNA expression and levels <0.1 as unexpressed.

[1] = tested on: Staphylococcus aureus and Escherichia coli; parameters: method as in Fifere et al., 2022; details: in vitro, especially that of levofloxacin; ref Fifere et al., 2022; cited from earlier work
hOCT2 = biological target: T1, hOCT2 (Homo sapiens, UniProt O15244); experiment: Inhibition of hOCT2-mediated uptake of 14C-TEA in hOCT2-S2 cells; format: cell-based; details: 14C-TEA 5 µM
T1 construct: host or cells: S2
T1 sequence (O15244 1-555): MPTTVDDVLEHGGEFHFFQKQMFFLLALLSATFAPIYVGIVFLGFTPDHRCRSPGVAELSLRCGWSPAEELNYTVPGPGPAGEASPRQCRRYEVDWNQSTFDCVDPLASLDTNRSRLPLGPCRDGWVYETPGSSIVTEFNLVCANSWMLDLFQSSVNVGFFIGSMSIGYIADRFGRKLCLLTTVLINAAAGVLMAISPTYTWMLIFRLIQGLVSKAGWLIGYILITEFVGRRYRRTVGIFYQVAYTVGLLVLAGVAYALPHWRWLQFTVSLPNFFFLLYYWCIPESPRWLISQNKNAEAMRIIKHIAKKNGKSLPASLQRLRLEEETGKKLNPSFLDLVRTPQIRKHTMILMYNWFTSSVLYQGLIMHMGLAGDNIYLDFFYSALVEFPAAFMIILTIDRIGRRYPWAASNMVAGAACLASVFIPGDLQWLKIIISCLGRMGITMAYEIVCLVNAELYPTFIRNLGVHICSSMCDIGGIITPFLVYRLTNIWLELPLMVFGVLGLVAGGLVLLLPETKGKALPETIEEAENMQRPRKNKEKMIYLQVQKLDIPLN
From the text: as §1, with “Membrane filters were placed in a 12 mm well with 1.5 and 0.5 ml of culture medium in the basolateral and apical compartments, respectively. Cells were cultured at 37°C in an atmosphere of 5% CO2. The inhibition experiments were adapted from previous methods with minor modifications ([Li et al., 2021a]; [2021b]).” left out
Briefly, the hOAT1-MDCK, hOAT3-MDCK, and hOCT2-S2 cells were trypsinized and suspended in the culture medium to provide a density of 1.5 × 10^5 cells/ml. […] The radioactive intensity of ^14C-PAH, ^3H-ES, and ^14C-TEA was measured using a Tri-Carb 2910TR scintillator (PerkinElmer, United States). Fluorescence was measured at 485 nm (excitation) and 546 nm (emission) for rhodamine 123, and 425 nm (excitation) and 528 nm (emission) for lucifer yellow. IC50 values were determined by employing GraphPad Prism 9.

Caco-2 cells = experiment: Bidirectional transport of ciprofloxacin in Caco-2 cells; format: in vitro ADME; details: GA 50 μM, PCA 50 μM, PCE 100 mg/ml, p < 0.05
Procedure: The Caco-2 cell lines were obtained from the National Collection of Authenticated Cell Cultures (NCACC, Shanghai, China). The bi-directional transport assay was performed on 12-mm Transwell Permeable Supports with 0.4 mm-pore polycarbonate membrane insert and 1.12 cm^2 growth areas. […] The cells were seeded at a density of 3×10^5 cells/well, incubated at 37°C and 5% CO2, and cultured for 21 days with replacement of cell culture medium supplemented with 1% penicillin-streptomycin every second day. Membrane filters were placed in a 12 mm well with 1.5 and 0.5 ml of culture medium in the basolateral and apical compartments, respectively. TEER was measured as an indication of an intact monolayer using a Millicell ERS voltohmmeter (Millipore, Merck). […] Aliquots of 50 μl were collected from the acceptor compartment at 0.5 h. The apparent permeability coefficient (P app) was calculated using the following formula: P app = (dC/dt) × V r/(A × C 0), where dC/dt is the alteration in concentration over time, V r is the volume of the receiver compartment, A is the area of the cell monolayer, and C 0 is the initial concentration in the donor compartment. The permeation of drug from the apical (A) to the basolateral (B) side of the cells (P app,A-B) is compared with the permeation in the opposite direction (P app,B-A).

Sequence of hOAT3 (Q8TCC7 whole entry): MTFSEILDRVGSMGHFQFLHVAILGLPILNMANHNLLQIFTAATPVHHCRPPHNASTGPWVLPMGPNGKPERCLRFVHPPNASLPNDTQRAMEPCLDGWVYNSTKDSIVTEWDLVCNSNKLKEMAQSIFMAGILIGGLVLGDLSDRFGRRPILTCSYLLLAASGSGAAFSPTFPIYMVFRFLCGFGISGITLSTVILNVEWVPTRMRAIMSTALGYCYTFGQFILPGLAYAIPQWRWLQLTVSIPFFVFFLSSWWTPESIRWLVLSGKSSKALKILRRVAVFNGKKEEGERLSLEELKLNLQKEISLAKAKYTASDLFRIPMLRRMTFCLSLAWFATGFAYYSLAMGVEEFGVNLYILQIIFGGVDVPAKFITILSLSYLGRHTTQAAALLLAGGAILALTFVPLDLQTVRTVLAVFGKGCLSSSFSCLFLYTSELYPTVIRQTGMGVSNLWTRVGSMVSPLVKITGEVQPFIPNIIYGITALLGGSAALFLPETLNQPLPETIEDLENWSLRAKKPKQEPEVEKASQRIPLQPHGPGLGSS

Compound	IC50 (hOAT3)	increase of BCRP mRNA expression (BCRP mRNA)	increase of the antibacterial activity [1]	IC50 (hOCT2)	change of net efflux ratio of CIP after co-treatment (Caco-2 cells)	IC50 (hOAT3; hOAT3-MDCK cells, 3H-ES 0.05 µM, read-out: IC50, hOAT3)
O=C(O)c1cc(O)c(O)c(O)c1 [GA, Gallic acid]	62.3 µM					
O=C(O)c1ccc(O)c(O)c1 [PCA, protocatechuic acid]		3.33 fold	up to 50%	107 µM	significant improvement	152 µM

Source: article PMC9640990 (Frontiers in Pharmacology, 2022)
